Reference: patent US20240368173A1, “TRICYCLIC GPR65 MODULATORS” (PATHIOS THERAPEUTICS LIMITED, priority 2021, published 2024)

The compounds below were run against human recombinant GPR65 (Homo sapiens, UniProt Q8IYL9) (assay: Human GPR65 cAMP HTRF antagonist assay). Conditions: not given.
Assay type: cell-based
In short: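 Antagonism measured as suppression of the cAMP rise when pH is dropped to 7.2 (control wells pH 7.9) in 1321N1 cells stably carrying human GPR65. Cells in KRH with 1 mM IBMX and 200 μM EDTA saw compound 30 min, then acid stimulation 30 min; HTRF cAMP detection, normalised, 4-parameter logistic IC50.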

Chain of human recombinant GPR65 (Q8IYL9 whole entry): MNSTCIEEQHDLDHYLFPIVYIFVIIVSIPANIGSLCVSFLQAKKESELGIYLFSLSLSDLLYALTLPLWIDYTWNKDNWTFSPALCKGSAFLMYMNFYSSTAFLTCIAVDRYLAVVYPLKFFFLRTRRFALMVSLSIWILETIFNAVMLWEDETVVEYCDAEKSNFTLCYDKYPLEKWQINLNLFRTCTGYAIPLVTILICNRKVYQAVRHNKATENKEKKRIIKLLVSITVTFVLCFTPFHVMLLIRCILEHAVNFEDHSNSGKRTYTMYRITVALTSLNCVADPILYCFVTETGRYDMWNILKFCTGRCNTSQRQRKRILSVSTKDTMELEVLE

Row | Structure (SMILES) | IC50 [nM]
1 | Cn1ncc2c(-c3cc(F)c(NC(=O)N4[C@H]5CC[C@@H]4c4n[nH]c(=O)cc4C5)cc3Cl)cccc21 [Compound 120, (6S,9R)-N-(5-Chloro-2-fluoro-4-(1-methyl-1H-indazol-4-yl)phenyl)-3-oxo-3,5,6,7,8,9-hexahydro-2H-6,9-epiminocyclohepta[c]pyridazine-10-carboxamide] | < 500
2 | O=C(Nc1cc(F)c(-c2ccc(C(F)(F)F)nc2)cc1F)N1[C@H]2CC[C@@H]1c1n[nH]c(=O)cc1C2 [Compound 286, (6S,9R)-N-(2,5-Difluoro-4-(6-(trifluoromethyl)pyridin-3-yl)phenyl)-3-oxo-3,5,6,7,8,9-hexahydro-2H-6,9-epiminocyclohepta[c]pyridazine-10-carboxamide] | < 500
3 | O=C(Nc1cc(Cl)c(-c2cncc(C(F)F)c2)cc1F)N1[C@H]2CC[C@@H]1c1n[nH]c(=O)cc1C2 [Compound 333, (6S,9R)-N-(5-Chloro-4-(5-(difluoromethyl)pyridin-3-yl)-2-fluorophenyl)-3-oxo-3,5,6,7,8,9-hexahydro-2H-6,9-epiminocyclohepta[c]pyridazine-10-carboxamide] | < 500
4 | O=C(Nc1cc(Cl)c(Oc2ccc3nonc3c2)cc1F)N1[C@H]2CC[C@@H]1c1n[nH]c(=O)cc1C2 [Compound 294, (6S,9R)-N-(4-(Benzo[c][1,2,5]oxadiazol-5-yloxy)-5-chloro-2-fluorophenyl)-3-oxo-3,5,6,7,8,9-hexahydro-2H-6,9-epiminocyclohepta[c]pyridazine-10-carboxamide] | < 500
5 | O=C(Nc1cc(Cl)c(-c2ccc(OCC3CC3)nc2)cc1F)N1[C@H]2CC[C@@H]1c1n[nH]c(=O)cc1C2 [Compound 318, (6S,9R)-N-(5-Chloro-4-(6-(cyclopropylmethoxy)pyridin-3-yl)-2-fluorophenyl)-3-oxo-3,5,6,7,8,9-hexahydro-2H-6,9-epiminocyclohepta[c]pyridazine-10-carboxamide] | < 500
6 | N#Cc1cc(NC(=O)N2[C@H]3CC[C@@H]2c2n[nH]c(=O)cc2C3)ccc1C(F)(F)F [Compound 41, (6S,9R)-N-(3-Cyano-4-(trifluoromethyl)phenyl)-3-oxo-3,5,6,7,8,9-hexahydro-2H-6,9-epiminocyclohepta[c]pyridazine-10-carboxamide] | < 500
7 | O=C(Nc1cc(Cl)c(Br)cc1F)N1[C@H]2CC[C@@H]1c1c[nH]c(=O)nc1C2 [Compound 23, (5R,8S)-N-(4-Bromo-5-chloro-2-fluorophenyl)-2-oxo-3,5,6,7,8,9-hexahydro-2H-5,8-epiminocyclohepta[d]pyrimidine-10-carboxamide] | < 500
8 | N#Cc1cc(NC(=O)N2C3CCC2c2n[nH]c(=O)cc2C3)ccc1C(F)(F)F (racemic) [Compound 11, (±)-N-(3-Cyano-4-(trifluoromethyl)phenyl)-3-oxo-3,5,6,7,8,9-hexahydro-2H-6,9-epiminocyclohepta[c]pyridazine-10-carboxamide] | < 500
9 | CO[C@H]1CC[C@@H](Oc2ccc(-c3cc(F)c(NC(=O)N4[C@H]5CC[C@@H]4c4n[nH]c(=O)cc4C5)cc3Cl)cn2)CC1 [Compound 343, (6S,9R)-N-(5-Chloro-2-fluoro-4-(6-(((1s,4s)-4-methoxycyclohexyl)oxy)pyridin-3-yl)phenyl)-3-oxo-3,5,6,7,8,9-hexahydro-2H-6,9-epiminocyclohepta[c]pyridazine-10-carboxamide] | < 500
10 | CC(C)Oc1cc(-c2cc(F)c(NC(=O)N3[C@H]4CC[C@@H]3c3n[nH]c(=O)cc3C4)cc2Cl)ccn1 [Compound 218, (6S,9R)-N-(5-Chloro-2-fluoro-4-(2-isopropoxypyridin-4-yl)phenyl)-3-oxo-3,5,6,7,8,9-hexahydro-2H-6,9-epiminocyclohepta[c]pyridazine-10-carboxamide] | < 500
11 | O=C(Nc1cc(Cl)c(Cl)cc1F)N1[C@H]2CC[C@@H]1c1n[nH]c(=O)cc1C2 [Compound 20, (6S,9R)-N-(4,5-Dichloro-2-fluorophenyl)-3-oxo-3,5,6,7,8,9-hexahydro-2H-6,9-epiminocyclohepta[c]pyridazine-10-carboxamide] | < 500
12 | O=C(Nc1cc(Cl)c(COc2ccc(F)nc2)cc1F)N1[C@H]2CC[C@@H]1c1n[nH]c(=O)cc1C2 [Compound 293, (6S,9R)-N-(5-Chloro-2-fluoro-4-(((6-fluoropyridin-3-yl)oxy)methyl)phenyl)-3-oxo-3,5,6,7,8,9-hexahydro-2H-6,9-epiminocyclohepta[c]pyridazine-10-carboxamide] | < 500
13 | O=C(Nc1cc(Cl)c(-c2ccc(N3CCOCC3)nc2)cc1F)N1[C@H]2CC[C@@H]1c1n[nH]c(=O)cc1C2 [Compound 340, (6S,9R)-N-(5-Chloro-2-fluoro-4-(6-morpholinopyridin-3-yl)phenyl)-3-oxo-3,5,6,7,8,9-hexahydro-2H-6,9-epiminocyclohepta[c]pyridazine-10-carboxamide] | < 500
14 | CC(C)Oc1ccc(-c2cc(F)c(NC(=O)N3[C@H]4CC[C@@H]3c3n[nH]c(=O)cc3C4)cc2Cl)cn1 [Compound 209, (6S,9R)-N-(5-Chloro-2-fluoro-4-(6-isopropoxypyridin-3-yl)phenyl)-3-oxo-3,5,6,7,8,9-hexahydro-2H-6,9-epiminocyclohepta[c]pyridazine-10-carboxamide] | < 500
15 | COCCOc1ccc(-c2cc(F)c(NC(=O)N3[C@H]4CC[C@@H]3c3n[nH]c(=O)cc3C4)cc2Cl)cn1 [Compound 303, (6S,9R)-N-(5-Chloro-2-fluoro-4-(6-(2-methoxyethoxy)pyridin-3-yl)phenyl)-3-oxo-3,5,6,7,8,9-hexahydro-2H-6,9-epiminocyclohepta[c]pyridazine-10-carboxamide] | < 500
16 | O=C(Nc1cc(Cl)c(-c2ccnc(OCC(F)(F)F)c2)cc1F)N1[C@H]2CC[C@@H]1c1n[nH]c(=O)cc1C2 [Compound 310, (6S,9R)-N-(5-Chloro-2-fluoro-4-(2-(2,2,2-trifluoroethoxy)pyridin-4-yl)phenyl)-3-oxo-3,5,6,7,8,9-hexahydro-2H-6,9-epiminocyclohepta[c]pyridazine-10-carboxamide] | < 500
17 | O=C(Nc1ccc(Br)c(C(F)(F)F)c1)N1C2CCC1c1n[nH]c(=O)cc1C2 (racemic) [Compound 10, (±)-N-(4-Bromo-3-(trifluoromethyl)phenyl)-3-oxo-3,5,6,7,8,9-hexahydro-2H-6,9-epiminocyclohepta[c]pyridazine-10-carboxamide] | < 500
18 | O=C(Nc1cc(Cl)c(C(F)(F)F)cc1F)N1C2CCC1[C@H](F)c1c2ccnc1F (mixture of isomers) [Compound 157, (±)-(9R)—N-(5-Chloro-2-fluoro-4-(trifluoromethyl)phenyl)-1,9-difluoro-6,7,8,9-tetrahydro-5H-5,8-epiminocyclohepta[c]pyridine-10-carboxamide] | < 500
19 | O=C(Nc1cc(Cl)c(-c2cnc3nonc3c2)cc1F)N1[C@H]2CC[C@@H]1c1ccnc(F)c1C2 [Compound 190, (5R,8S)-N-(4-([1,2,5]Oxadiazolo[3,4-b]pyridin-6-yl)-5-chloro-2-fluorophenyl)-1-fluoro-6,7,8,9-tetrahydro-5H-5,8-epiminocyclohepta[c]pyridine-10-carboxamide] | < 500
20 | Cn1ncc2ccc(-c3cc(F)c(NC(=O)N4[C@H]5CC[C@@H]4c4n[nH]c(=O)cc4C5)cc3Cl)cc21 [Compound 152, (6S,9R)-N-(5-Chloro-2-fluoro-4-(1-methyl-1H-indazol-6-yl)phenyl)-3-oxo-3,5,6,7,8,9-hexahydro-2H-6,9-epiminocyclohepta[c]pyridazine-10-carboxamide] | < 500
21 | O=C(Nc1cc(Br)c(Cl)cc1F)N1[C@@H]2CC[C@H]1c1n[nH]c(=O)cc1C2 [Compound 38, (6R,9S)-N-(5-Bromo-4-chloro-2-fluorophenyl)-3-oxo-3,5,6,7,8,9-hexahydro-2H-6,9-epiminocyclohepta[c]pyridazine-10-carboxamide] | 500 to 5000
22 | O=C(Nc1ccc(Cl)c(Br)c1)N1C2CCC1c1n[nH]c(=O)cc1C2 (racemic) [Compound 5, (±)-N-(3-Bromo-4-chlorophenyl)-3-oxo-3,5,6,7,8,9-hexahydro-2H-6,9-epiminocyclohepta[c]pyridazine-10-carboxamide] | < 500

Same assay, conditions: 1321N1-hrGPR65 cells, cAMP HTRF, assay pH 7.2; read-out: hGPR65 IC50 (Activity of selected compounds according to the invention)

Row | Structure (SMILES) | IC50 [nM]
23 | CN(C(=O)N1C2CCC1c1ccc(=O)n(C)c1C2)c1cc(Cl)c(Cl)cc1F (racemic) [Compound 288, (±)—N-(4,5-Dichloro-2-fluorophenyl)-N,1-dimethyl-2-oxo-2,5,6,7,8,9-hexahydro-1H-5,8-epiminocyclohepta[b]pyridine-10-carboxamide] | > 5000
24 | CC(=O)Nc1ccc(-c2cc(F)c(NC(=O)N3[C@H]4CC[C@@H]3c3n[nH]c(=O)cc3C4)cc2Cl)cn1 [Compound 117, (6S,9R)-N-(4-(6-Acetamidopyridin-3-yl)-5-chloro-2-fluorophenyl)-3-oxo-3,5,6,7,8,9-hexahydro-2H-6,9-epiminocyclohepta[c]pyridazine-10-carboxamide] | 500 to 5000
25 | O=C(Nc1cc(Cl)c(Cl)cc1F)N1[C@H]2CC[C@@H]1c1ccnc(C(F)F)c1C2 [Compound 89, (5R,8S)-N-(4,5-Dichloro-2-fluorophenyl)-1-(difluoromethyl)-6,7,8,9-tetrahydro-5H-5,8-epiminocyclohepta[c]pyridine-10-carboxamide] | 500 to 5000
26 | Cc1ncc(-c2ccc(NC(=O)N3[C@H]4CC[C@@H]3c3ccnc(F)c3C4)cc2)o1 [Compound 56, (5R,8S)-1-Fluoro-N-(4-(2-methyloxazol-5-yl)phenyl)-6,7,8,9-tetrahydro-5H-5,8-epiminocyclohepta[c]pyridine-10-carboxamide] | 500 to 5000
27 | O=C(Nc1cc(Cl)c(C(F)(F)F)cc1F)N1[C@@H]2CC[C@H]1c1c[nH]c(=O)nc1C2 [Compound 25, (5S,8R)-N-(5-Chloro-2-fluoro-4-(trifluoromethyl)phenyl)-2-oxo-3,5,6,7,8,9-hexahydro-2H-5,8-epiminocyclohepta[d]pyrimidine-10-carboxamide] | 500 to 5000
